Assay type in all cases: biochemical
For one test, the target named is T1, SRC (Homo sapiens, UniProt P12931).
T1 construct: purchased Caliper Life Sciences
The test can be described thus: Desktop Profiler kinase panel, SRC. The note with it: for inhibition at 10 µM: 10 micromolar concentration of the compound, read-out: Percent Inhibition SRC. The procedure: (§1) The Aurora assays described here are performed on two Caliper Life Sciences systems: the LC3000 and the Desktop Profiler. These provide data on enzyme activity via measurement of the relative amounts of phosphorylated or unphosphorylated fluorescently labelled substrate peptide at the end of an enzymatic reaction. These different states of peptide are resolved by applying a potential difference across the sample. The presence of the charged phosphate group on the product (as opposed to the substrate) causes a different peptide mobility between the two peptides. This is visualized by excitation of the fluorescent label on the substrate and product peptides and represented as peaks within the analysis software.
(§2) The Desktop Profiler utilizes the same principle as the LC3000 for calculating percentage conversion of a substrate to product. Caliper Life Sciences provides proprietary flash frozen pre-made 384 well plates containing selected kinases. Each column in the 384 well plate contains a particular selected kinase. A second plate, the ‘substrate plate’ contains a mix of fluorescently labeled peptide substrate and ATP. These are arranged in columns so that transfer for substrate plate to enzyme plate provides the correct enzyme with the correct substrate/ATP concentration. Compounds are added to a thawed enzyme plate in the desired format, in single concentrations. Reactions are initiated by transfer of the substrate/ATP mix from the substrate plate. The enzyme plate is incubated for 90 mins at 25 C. The reaction is stopped by addition of 70 ul of Stop Buffer (100 mM HEPES pH 7.5, 0.015% Brij-35, 10 mM EDTA (Sigma, E7889)).
(§3) Reading of the plate in the Profiler is identical to the LC3000, and the ratio between substrate and product peaks provides the activity of the enzyme in that well. This is best represented by a plate heat map which colors each well by percent inhibition as compared to positive and negative controls (no inhibitors and no ATP respectively).
(§4) In the following Tables 3a-4-b, which show the results of the desktop profiler measurements, “+” means 50-70% inhibition, “++” means 70-90% inhibition, and “+++” means >90% inhibition. The enzymes tested for profiling were ABL, AKT1, AKT2, AurA, CHK1, CHK2, CK1d, Erk1, Erk2, FYN, GSK3b, INSR, LCK, LYN, MAPKAPK2, MET, MSK1, p38a, PKA, PKCz, PKD2, PRAK, RSK1 and SRC.

The next test has as its target T2, ABL (Homo sapiens, UniProt P00519).
T2 construct: purchased Caliper Life Sciences
Kind of test: Desktop Profiler kinase panel, ABL. The note with it: for inhibition at 10 µM: 10 micromolar concentration of the compound, read-out: Percent Inhibition ABL; for inhibition at 1 µM: 1 micromolar concentration of the compound. Here is the method:
as §1, §2, §3, §4

The target in another test is T3, AurA (Homo sapiens, UniProt O14965).
T3 construct: purchased Caliper Life Sciences
T3 sequence (O14965 1-403): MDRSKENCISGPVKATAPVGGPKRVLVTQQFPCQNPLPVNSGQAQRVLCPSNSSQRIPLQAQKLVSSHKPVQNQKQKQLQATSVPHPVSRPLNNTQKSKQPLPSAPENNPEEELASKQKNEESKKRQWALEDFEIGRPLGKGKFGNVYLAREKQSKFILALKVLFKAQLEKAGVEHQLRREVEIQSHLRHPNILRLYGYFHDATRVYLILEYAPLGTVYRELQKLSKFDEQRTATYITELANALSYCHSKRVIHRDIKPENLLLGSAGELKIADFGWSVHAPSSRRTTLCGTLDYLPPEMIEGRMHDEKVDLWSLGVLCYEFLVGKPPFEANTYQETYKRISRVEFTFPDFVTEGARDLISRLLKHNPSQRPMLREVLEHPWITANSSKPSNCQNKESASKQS
Kind of test: Desktop Profiler kinase panel, AurA. The note with it: for inhibition at 10 µM: 10 micromolar concentration of the compound, read-out: Percent Inhibition AurA; for inhibition at 1 µM: 1 micromolar concentration of the compound. The procedure:
as §1, §2, §3, §4

The target in another test is T4, LCK (Homo sapiens, UniProt P06239).
T4 construct: purchased Caliper Life Sciences
T4 sequence (P06239 whole entry, species assumed): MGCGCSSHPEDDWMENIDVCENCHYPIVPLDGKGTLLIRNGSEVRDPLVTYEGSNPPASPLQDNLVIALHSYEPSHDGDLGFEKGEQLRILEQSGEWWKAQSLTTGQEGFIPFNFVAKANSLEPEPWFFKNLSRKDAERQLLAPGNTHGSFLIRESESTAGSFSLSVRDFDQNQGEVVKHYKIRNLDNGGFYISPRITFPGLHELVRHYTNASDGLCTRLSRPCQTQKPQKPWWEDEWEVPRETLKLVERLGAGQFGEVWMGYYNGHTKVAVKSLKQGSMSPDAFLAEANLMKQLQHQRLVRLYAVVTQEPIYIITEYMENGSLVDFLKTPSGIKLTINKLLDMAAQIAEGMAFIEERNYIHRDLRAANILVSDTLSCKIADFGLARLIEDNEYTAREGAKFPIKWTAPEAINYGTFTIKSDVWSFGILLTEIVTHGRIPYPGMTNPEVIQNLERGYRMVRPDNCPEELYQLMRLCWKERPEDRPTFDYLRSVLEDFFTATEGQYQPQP
The test can be described thus: Desktop Profiler kinase panel, LCK. The note with it: for inhibition at 10 µM: 10 micromolar concentration of the compound, read-out: Percent Inhibition LCK. The procedure: as §1, §2, §3, §4

In another test the target is T5, FYN (Homo sapiens, UniProt P06241).
T5 construct: purchased Caliper Life Sciences
T5 sequence (P06241 whole entry, species assumed): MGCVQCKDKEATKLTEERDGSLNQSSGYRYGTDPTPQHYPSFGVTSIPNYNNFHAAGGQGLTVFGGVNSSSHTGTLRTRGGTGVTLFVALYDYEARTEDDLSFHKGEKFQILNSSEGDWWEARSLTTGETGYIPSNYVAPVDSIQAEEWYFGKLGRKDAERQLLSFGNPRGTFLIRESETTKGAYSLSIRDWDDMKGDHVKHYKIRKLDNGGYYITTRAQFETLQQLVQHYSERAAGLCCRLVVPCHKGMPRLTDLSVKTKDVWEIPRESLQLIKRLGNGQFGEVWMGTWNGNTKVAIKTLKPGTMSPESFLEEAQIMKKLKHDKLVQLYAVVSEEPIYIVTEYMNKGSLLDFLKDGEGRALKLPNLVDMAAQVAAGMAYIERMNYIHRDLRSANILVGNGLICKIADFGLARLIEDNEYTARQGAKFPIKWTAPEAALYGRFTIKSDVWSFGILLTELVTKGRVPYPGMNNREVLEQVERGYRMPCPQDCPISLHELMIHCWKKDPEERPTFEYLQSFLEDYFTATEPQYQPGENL
The test can be described thus: Desktop Profiler kinase panel, FYN. The note with it: for inhibition at 10 µM: 10 micromolar concentration of the compound, read-out: Percent Inhibition FYN; for inhibition at 1 µM: 1 micromolar concentration of the compound. The procedure: as §1, §2, §3, §4

In a further test the target is T6, GST-Aurora A (Homo sapiens, UniProt O14965).
T6 construct: N-terminal GST fusion with full length Aurora A (1-403 amino acids); purchased Carna Biosciences 05-101
T6 sequence (O14965 1-403): T3 sequence (O14965 1-403)
Kind of test: Aurora A IC50, Caliper LC3000 mobility shift assay. The note with it: LC3000 method; 15 uM ATP (the KM value); read-out: Aurora Kinase A Activity (IC50). Put shortly:
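GST-tagged full-length Aurora A (0.067 ng/ul) with 15 uM ATP (KM) and 1 uM FITC-LRRASLG peptide in 100 mM HEPES pH 7.5, 1 mM MgCl2, 1 mM DTT, Brij-35; 90 min at 25 C, EDTA stop. Off-chip mobility shift read of substrate-to-product conversion; IC50 from sigmoidal dose-response.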

A further test has as its target T7, LYN (Homo sapiens, UniProt P07948).
T7 construct: purchased Caliper Life Sciences
Kind of test: Desktop Profiler kinase panel, LYN. The note with it: 10 micromolar concentration of the compound; read-out: Percent Inhibition LYN. The procedure: as §1, §2, §3, §4

The target in another test is T8, CHK2 (Homo sapiens, UniProt O96017).
T8 construct: purchased Caliper Life Sciences
T8 sequence (O96017 whole entry, species assumed): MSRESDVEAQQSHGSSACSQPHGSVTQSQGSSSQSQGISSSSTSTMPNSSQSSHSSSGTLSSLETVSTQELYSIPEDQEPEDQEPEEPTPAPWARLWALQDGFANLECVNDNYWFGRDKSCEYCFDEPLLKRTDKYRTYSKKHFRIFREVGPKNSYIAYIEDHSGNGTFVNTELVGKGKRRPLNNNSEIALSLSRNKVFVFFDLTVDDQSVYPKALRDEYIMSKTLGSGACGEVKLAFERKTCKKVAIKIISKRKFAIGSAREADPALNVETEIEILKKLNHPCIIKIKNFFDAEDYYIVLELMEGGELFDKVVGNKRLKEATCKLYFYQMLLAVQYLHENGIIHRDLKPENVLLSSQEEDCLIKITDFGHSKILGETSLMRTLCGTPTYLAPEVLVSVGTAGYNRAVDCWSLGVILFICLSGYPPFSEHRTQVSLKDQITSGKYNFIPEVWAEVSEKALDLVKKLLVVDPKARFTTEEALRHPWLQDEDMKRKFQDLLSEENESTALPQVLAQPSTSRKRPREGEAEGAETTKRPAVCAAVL
Kind of test: Desktop Profiler kinase panel, CHK2. The note with it: 10 micromolar concentration of the compound; read-out: Percent Inhibition CHK2. Here is the method: as §1, §2, §3, §4

Setting [1] is: 1 micromolar concentration of the compound.

A value given as a limit tells only on which side of the number the result lay.

As usually defined, the inhibition is the change of the read-out against control, counted positive when it falls. The term IC50 denotes the midpoint of a concentration-inhibition curve.

T1 sequence (P12931 whole entry, species assumed): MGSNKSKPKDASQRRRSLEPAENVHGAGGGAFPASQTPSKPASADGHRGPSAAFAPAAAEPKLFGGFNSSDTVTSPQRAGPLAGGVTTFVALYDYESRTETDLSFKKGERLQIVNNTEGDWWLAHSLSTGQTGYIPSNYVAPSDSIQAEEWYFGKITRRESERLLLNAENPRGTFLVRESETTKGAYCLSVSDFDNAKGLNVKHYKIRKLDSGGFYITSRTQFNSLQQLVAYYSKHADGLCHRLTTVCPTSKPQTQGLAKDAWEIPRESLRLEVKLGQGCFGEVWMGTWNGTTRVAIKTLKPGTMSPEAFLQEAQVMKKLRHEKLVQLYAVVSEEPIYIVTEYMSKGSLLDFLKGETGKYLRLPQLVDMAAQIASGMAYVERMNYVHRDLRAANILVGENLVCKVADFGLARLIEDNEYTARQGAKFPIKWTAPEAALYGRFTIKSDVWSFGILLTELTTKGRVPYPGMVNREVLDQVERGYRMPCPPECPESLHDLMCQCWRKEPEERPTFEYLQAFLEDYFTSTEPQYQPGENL
T2 sequence (P00519 whole entry, species assumed): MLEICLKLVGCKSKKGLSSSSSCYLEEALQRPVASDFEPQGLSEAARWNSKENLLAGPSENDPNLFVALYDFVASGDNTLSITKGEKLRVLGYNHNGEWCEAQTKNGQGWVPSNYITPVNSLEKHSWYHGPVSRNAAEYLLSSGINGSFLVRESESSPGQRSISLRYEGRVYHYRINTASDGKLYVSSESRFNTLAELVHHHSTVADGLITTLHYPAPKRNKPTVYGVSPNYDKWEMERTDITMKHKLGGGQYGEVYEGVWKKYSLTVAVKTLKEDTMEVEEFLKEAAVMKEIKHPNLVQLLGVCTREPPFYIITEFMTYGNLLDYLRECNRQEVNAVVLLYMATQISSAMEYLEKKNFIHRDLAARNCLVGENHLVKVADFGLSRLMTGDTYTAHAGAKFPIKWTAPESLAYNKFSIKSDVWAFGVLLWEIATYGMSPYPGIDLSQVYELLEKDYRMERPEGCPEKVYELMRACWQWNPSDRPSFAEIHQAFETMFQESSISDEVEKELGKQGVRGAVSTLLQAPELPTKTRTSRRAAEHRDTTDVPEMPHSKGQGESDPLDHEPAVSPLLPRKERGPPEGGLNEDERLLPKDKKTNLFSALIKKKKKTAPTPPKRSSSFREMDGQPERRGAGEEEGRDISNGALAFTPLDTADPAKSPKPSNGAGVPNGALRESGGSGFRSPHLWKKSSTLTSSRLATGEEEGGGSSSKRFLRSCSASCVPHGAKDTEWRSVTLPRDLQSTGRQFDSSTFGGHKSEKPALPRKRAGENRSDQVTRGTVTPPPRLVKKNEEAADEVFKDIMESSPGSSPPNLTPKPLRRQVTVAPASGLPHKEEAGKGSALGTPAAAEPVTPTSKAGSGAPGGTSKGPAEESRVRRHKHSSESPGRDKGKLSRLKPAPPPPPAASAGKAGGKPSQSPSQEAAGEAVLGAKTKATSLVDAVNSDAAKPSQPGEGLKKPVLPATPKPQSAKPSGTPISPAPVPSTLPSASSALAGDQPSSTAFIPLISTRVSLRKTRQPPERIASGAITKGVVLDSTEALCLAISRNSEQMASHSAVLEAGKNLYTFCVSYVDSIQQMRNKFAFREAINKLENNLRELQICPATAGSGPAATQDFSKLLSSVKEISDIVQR
T7 sequence (P07948 whole entry, species assumed): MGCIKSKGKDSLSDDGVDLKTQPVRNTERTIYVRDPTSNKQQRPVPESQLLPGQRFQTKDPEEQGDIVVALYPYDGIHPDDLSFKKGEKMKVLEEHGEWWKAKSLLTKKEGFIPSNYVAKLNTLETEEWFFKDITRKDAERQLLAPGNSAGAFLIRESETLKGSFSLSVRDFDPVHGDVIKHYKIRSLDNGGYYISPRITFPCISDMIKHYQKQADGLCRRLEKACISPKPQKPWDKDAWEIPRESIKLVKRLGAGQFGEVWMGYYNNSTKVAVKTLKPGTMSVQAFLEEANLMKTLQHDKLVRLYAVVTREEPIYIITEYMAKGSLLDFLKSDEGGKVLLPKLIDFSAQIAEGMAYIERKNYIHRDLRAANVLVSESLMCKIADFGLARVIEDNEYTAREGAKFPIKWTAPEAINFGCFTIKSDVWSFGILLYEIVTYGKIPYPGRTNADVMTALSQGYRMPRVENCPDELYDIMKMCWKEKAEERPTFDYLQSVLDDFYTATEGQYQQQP

With `Clc1nc2nccc(Nc3ccccc3)c2c2ccccc12` [Example 139, (6-Chloro-benzo[c][1,8]naphthyridin-1-yl)-phenyl-amine], the inhibition at 10 µM is greater than 90% at SRC; greater than 90% on ABL; 70 to 90% on AurA; 70 to 90% on LCK; greater than 90% on FYN; greater than 90% on LYN. Further, the inhibition at 10 µM at CHK2 was in the range of 50 to 70%. Also, the IC50 at GST-Aurora A was greater than 100 nM.

Consider `COc1ccc(CCNc2ccc3c(=O)[nH]c4ncccc4c3c2)cc1` [Example 36, 9-[2-(4-Methoxy-phenyl)-ethylamino]-5H-benzo[c][1,8]naphthyridin-6-one], for which, at AurA, the inhibition at 1 µM was in the range of 50 to 70%. For the same compound, the inhibition at 10 µM was greater than 90% on AurA, 50 to 70% on FYN and 70 to 90% at CHK2. Moreover, the IC50 on GST-Aurora A is greater than 100 nM.

For the compound `COc1ccccc1Nc1ccc2c(=O)[nH]c3ncccc3c2c1` [Example 30, 9-(2-Methoxy-phenylamino)-5H-benzo[c][1,8]naphthyridin-6-one], the inhibition at 10 µM is 50 to 70% on SRC; 50 to 70% at ABL; greater than 90% at AurA; 50 to 70% at FYN; 70 to 90% at LYN. This compound also yielded an inhibition at 1 µM against AurA of 70 to 90%. Also, the IC50 at GST-Aurora A is greater than 100 nM.

With `Clc1nc2nccc(Oc3ccccc3)c2c2ccccc12` [Example 140, 6-Chloro-1-phenoxy-benzo[c][1,8]naphthyridine], the inhibition at 10 µM on SRC, at ABL and at FYN was 50 to 70% throughout.

Regarding `O=c1[nH]c2nccc(Nc3ccccc3)c2c2ccccc12` [Example 95, 1-Phenylamino-5H-benzo[c][1,8]naphthyridin-6-one], the inhibition at 1 µM on SRC (setting [1]) was greater than 90%; against ABL, greater than 90%; against AurA, 50 to 70%; on LCK (setting [1]) it was 50 to 70%; against FYN it was greater than 90%. The inhibition at 10 µM at SRC was greater than 90%; on ABL, greater than 90%; at AurA it was 70 to 90%; at LCK, 70 to 90%; on FYN it was greater than 90%; on LYN, greater than 90%. Moreover, the inhibition at 10 µM at CHK2 fell in the range of 50 to 70%.

As for `O=c1[nH]c2nccc(Nc3ccc(Oc4ccccc4)cc3)c2c2ccccc12` [Example 121, 1-(4-Phenoxy-phenylamino)-5H-benzo[c][1,8]naphthyridin-6-one], the inhibition at 10 µM at SRC was 70 to 90%; on AurA it was 50 to 70%; on LCK it was 70 to 90%; at FYN it was 70 to 90%; on LYN it was 70 to 90%.

On to `COc1ccc(Oc2ccnc3[nH]c(=O)c4ccccc4c23)cc1` [Example 125, 1-(4-Methoxy-phenoxy)-5H-benzo[c][1,8]naphthyridin-6-one], for which the inhibition at 1 µM against ABL and on FYN was 70 to 90% each time.

As to `COCCNc1ccc2c(=O)[nH]c3ncccc3c2c1` [Example 27, 9-(2-Methoxy-ethylamino)-5H-benzo[c][1,8]naphthyridin-6-one], the inhibition at 10 µM at AurA was 70 to 90%; on CHK2 it was 50 to 70%.

For the compound `O=c1[nH]c2ncc(Nc3ccccc3)cc2c2ccccc12` [Example 12, 2-Phenylamino-5H-benzo[c][1,8]naphthyridin-6-one], the inhibition at 10 µM fell in the range of 70 to 90% at ABL and 50 to 70% on FYN.

Turning to `O=c1[nH]c2ncc(NCc3ccccc3)cc2c2ccccc12` [Example 13, 2-Benzylamino-5H-benzo[c][1,8]naphthyridin-6-one], the inhibition at 10 µM on SRC is 70 to 90%; on ABL, 50 to 70%; on LCK it was 50 to 70%; at FYN, greater than 90%; on LYN, 70 to 90%.

In the case of `O=c1[nH]c2ncccc2c2cc(N3CCOCC3)ccc12` [Example 26, 9-Morpholin-4-yl-5H-benzo[c][1,8]naphthyridin-6-one], the inhibition at 10 µM on AurA is 70 to 90%; on CHK2, 50 to 70%.

The record behind these values is patent publication US8735584B2 (Merck Patent GmbH, priority 2008, dated 2014).
